Values quoted from earlier work, collected in US9943555B2, “Bacteria engineered to reduce hyperphenylalaninemia” (Synlogic, Inc., priority 2015, dated 2018).

Test system: patients / subjects with phenylketonuria

Structure (SMILES): C[C@H](O)[C@H](O)[C@H]1CNc2nc(N)[nH]c(=O)c2N1 [Kuvan, tetrahydrobiopterin]
- side effects: gastritis and severe allergic reactions
